The target of experiment [1] is T1, Heat shock factor protein 1 (Mus musculus, UniProt P38532).
T1 sequence (P38532 whole entry): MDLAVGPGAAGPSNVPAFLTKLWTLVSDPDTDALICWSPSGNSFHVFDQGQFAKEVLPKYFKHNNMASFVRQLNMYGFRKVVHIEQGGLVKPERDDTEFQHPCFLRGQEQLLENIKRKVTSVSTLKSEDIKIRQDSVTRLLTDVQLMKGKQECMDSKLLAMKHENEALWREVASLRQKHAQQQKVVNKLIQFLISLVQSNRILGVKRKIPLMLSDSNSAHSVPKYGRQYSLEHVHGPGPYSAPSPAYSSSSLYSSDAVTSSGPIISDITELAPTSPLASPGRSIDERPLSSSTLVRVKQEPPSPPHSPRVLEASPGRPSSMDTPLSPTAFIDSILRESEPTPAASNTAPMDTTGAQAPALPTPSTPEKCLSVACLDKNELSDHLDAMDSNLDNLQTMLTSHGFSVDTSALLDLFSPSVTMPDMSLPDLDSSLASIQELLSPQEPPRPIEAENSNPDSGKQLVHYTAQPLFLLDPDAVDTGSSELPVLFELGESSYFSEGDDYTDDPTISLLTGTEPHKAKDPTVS
The experiment in a line: decrease of HSF1-responsive luciferase luminescence – cell-based, NIH3T3, dose retest, confirmation (AID 2382).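 Further: NIH3T3 fibroblasts with HSF1-driven luciferase reporter stressed by proteasome inhibitor MG132; luminescence from HSF1-driven luciferase expression after 8 hours of MG132 stress.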 The format is functional.

Experiment [2] addresses Luciferin 4-monooxygenase (Photinus pyralis, UniProt P08659). The experiment in a line: inhibition of purified Photinus pyralis luciferase – biochemical, luminescence, dose response (AID 1891).
Experiment [3] in a line: Luminescence Cell-Based Dose Confirmation HTS to Identify Inhibitors of Platelet Dense Granule Release. [Related pubchem assays: 1663 (Primary HTS), 1678 (Summary of Project)]. The format is functional.
The next experiment relates to HEK293. The experiment in a line: EBV LMP1 TES2 canonical NF-kB signalling blockers – cell-based, HEK293, luciferase, cherry-pick, dose response (AID 588343). To be noted: Homo sapiens. The format is functional.
In experiment [4] the target is T2, Long-chain-fatty-acid--AMP ligase FadD28 (Mycobacterium tuberculosis, UniProt P9WQ59).
T2 sequence (P9WQ59 whole entry): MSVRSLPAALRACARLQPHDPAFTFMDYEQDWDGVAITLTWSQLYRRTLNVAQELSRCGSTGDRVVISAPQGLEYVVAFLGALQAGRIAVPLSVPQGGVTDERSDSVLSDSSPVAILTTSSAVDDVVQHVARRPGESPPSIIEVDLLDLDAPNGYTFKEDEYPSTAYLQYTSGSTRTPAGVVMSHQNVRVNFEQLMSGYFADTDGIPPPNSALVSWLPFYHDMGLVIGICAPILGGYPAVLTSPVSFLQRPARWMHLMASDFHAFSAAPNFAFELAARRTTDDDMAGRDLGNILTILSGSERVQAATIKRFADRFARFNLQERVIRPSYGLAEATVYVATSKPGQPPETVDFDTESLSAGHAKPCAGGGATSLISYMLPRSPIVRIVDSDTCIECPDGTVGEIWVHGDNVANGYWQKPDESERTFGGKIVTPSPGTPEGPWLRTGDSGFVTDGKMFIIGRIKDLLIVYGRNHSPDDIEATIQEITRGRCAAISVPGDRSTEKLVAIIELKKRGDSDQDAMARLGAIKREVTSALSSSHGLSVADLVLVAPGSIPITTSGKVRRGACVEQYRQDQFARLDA
The experiment in a line: Fluorescence polarization aasay to screen for inhibitors that compete for the binding of FadD28 to a bisubstrate Measured in Biochemical System Using Plate Reader - 2147-01_Inhibitor_Dose_CherryPick_Activity. The format is functional, Mycobacterium tuberculosis H37Rv. On the technique in general: Polarisation of emitted light reports the rotation of a fluorescent probe.

Another experiment concerns the target T3, Caspase-3 (Homo sapiens, UniProt P42574).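 Further: Dose-response selectivity test against caspase-3 for candidate inhibitors of sentrin-specific proteases (SENPs).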
T3 sequence (P42574 whole entry): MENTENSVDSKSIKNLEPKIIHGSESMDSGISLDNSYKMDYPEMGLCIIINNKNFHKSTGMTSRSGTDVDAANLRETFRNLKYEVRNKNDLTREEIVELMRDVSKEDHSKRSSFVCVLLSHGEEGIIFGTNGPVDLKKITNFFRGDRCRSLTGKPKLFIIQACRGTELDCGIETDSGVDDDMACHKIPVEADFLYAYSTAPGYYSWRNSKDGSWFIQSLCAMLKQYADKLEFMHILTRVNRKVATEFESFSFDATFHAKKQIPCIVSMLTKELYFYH
The format is functional.

In experiment [5] the target is T4, Sentrin-specific protease 7 (Homo sapiens, UniProt Q9BQF6).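 Further: Luminescence-based dose-response confirmation of ultra-high-throughput screening hits, measuring inhibition of SENP7.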
T4 sequence (Q9BQF6 whole entry): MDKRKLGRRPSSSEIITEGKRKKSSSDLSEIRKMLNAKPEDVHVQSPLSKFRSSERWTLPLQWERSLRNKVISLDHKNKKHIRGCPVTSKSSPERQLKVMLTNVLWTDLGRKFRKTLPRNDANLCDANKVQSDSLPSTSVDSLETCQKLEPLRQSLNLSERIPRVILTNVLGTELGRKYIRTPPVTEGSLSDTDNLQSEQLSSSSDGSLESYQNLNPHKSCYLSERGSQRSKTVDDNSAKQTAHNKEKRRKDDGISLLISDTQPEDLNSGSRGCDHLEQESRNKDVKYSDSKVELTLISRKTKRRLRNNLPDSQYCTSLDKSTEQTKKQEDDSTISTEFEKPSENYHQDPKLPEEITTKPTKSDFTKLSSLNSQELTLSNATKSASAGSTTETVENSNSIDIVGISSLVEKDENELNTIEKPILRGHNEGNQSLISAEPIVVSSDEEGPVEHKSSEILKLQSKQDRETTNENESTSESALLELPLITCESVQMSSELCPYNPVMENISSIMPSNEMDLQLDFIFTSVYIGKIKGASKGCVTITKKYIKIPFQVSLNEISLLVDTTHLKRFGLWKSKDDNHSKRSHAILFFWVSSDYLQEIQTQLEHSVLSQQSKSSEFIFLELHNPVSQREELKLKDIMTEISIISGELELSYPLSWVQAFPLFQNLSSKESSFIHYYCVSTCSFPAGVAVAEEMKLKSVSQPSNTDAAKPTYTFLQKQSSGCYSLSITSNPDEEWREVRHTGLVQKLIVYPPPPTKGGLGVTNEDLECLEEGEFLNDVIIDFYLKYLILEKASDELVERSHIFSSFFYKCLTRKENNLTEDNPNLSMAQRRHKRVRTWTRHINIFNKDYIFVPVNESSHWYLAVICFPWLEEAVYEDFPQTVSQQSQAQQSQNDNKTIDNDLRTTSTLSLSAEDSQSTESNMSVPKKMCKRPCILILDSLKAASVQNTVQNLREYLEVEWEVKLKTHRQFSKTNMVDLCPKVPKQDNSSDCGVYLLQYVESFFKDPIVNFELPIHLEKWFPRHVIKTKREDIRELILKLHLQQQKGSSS
The class given is functional.

The target in experiment [6] is T5, Sentrin-specific protease 6 (Homo sapiens, UniProt Q9GZR1).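 Further: Luminescence-based dose-response confirmatory assay of SENP6 inhibition, following up an ultra-high-throughput screen.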
T5 sequence (Q9GZR1 whole entry): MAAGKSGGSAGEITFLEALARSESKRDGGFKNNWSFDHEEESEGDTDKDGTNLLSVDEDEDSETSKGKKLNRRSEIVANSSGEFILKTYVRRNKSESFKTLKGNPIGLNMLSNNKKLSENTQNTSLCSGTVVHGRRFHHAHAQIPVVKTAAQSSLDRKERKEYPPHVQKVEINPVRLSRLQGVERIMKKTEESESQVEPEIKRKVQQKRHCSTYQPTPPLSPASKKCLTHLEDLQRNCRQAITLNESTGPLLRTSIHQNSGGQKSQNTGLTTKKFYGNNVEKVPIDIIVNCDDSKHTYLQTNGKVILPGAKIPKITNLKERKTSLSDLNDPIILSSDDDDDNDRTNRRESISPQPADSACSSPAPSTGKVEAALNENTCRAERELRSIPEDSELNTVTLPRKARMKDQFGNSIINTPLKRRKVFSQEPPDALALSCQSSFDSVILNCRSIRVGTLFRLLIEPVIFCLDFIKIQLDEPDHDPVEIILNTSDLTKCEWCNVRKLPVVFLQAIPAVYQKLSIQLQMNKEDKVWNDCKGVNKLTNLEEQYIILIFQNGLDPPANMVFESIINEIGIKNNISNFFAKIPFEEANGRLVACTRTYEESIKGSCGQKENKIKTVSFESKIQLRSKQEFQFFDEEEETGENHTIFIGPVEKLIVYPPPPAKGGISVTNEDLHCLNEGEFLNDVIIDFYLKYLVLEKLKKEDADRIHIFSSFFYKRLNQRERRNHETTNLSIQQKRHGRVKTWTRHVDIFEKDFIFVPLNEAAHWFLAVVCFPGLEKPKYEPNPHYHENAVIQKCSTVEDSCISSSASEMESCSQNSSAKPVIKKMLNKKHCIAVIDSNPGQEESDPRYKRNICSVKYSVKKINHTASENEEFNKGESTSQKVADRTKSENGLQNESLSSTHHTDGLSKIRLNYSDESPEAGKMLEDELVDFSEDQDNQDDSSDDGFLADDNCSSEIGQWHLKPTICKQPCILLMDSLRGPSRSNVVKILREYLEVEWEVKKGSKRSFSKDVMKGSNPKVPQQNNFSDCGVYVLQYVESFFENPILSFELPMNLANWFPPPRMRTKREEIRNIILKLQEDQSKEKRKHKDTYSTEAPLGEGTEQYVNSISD
The class given is functional.

The target in experiment [7] is T6, Sentrin-specific protease 8 (Homo sapiens, UniProt Q96LD8).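 Further: luminescence read-out of SENP8 inhibition, dose-response confirmation following an ultra-high-throughput screen.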
T6 sequence (Q96LD8 whole entry): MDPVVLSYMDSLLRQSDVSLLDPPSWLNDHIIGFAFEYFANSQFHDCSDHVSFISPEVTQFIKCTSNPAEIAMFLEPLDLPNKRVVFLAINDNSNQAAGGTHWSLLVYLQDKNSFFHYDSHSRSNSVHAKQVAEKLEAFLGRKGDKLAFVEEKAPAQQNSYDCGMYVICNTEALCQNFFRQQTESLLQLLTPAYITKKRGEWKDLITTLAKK
The class given is functional.

For experiment [8], the target named is T7, Hepatocyte nuclear factor 4-alpha (Homo sapiens, UniProt P41235).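 Further: biochemical luminescence-based dose-response counterscreen measuring inhibition of HNF4 dimerization, run alongside a screen for blockers of ABHD5–perilipin-5 interaction; split luciferase complementation of HNF4 fusion proteins in cell lysate measuring dimerization.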
T7 sequence (P41235 whole entry): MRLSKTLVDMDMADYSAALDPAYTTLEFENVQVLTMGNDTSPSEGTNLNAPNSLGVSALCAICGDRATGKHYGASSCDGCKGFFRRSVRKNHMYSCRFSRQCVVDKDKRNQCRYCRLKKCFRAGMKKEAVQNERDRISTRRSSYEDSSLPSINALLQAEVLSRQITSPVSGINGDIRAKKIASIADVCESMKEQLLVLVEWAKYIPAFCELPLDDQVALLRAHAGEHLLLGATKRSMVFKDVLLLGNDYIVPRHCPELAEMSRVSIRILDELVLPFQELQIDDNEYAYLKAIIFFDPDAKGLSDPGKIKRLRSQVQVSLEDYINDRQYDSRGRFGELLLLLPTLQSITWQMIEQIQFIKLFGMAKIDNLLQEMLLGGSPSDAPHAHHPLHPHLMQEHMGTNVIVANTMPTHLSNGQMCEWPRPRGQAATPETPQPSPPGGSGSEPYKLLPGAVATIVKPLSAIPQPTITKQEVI
The class given is functional, cell-based.

Experiment [9] addresses Heat shock protein HSP 90-alpha (Homo sapiens, UniProt P07900). The class given is functional, organism-based.
Experiment [10] is described as follows: microbe, parasite or virus in culture. The format is functional. To be noted: Mycobacterium tuberculosis.

Activity calls are given as the source filed them.

Here are results for ten molecules from ChEMBL document CHEMBL1201862, “PubChem BioAssay data set” (2004).

Sequence of Luciferin 4-monooxygenase (P08659 whole entry): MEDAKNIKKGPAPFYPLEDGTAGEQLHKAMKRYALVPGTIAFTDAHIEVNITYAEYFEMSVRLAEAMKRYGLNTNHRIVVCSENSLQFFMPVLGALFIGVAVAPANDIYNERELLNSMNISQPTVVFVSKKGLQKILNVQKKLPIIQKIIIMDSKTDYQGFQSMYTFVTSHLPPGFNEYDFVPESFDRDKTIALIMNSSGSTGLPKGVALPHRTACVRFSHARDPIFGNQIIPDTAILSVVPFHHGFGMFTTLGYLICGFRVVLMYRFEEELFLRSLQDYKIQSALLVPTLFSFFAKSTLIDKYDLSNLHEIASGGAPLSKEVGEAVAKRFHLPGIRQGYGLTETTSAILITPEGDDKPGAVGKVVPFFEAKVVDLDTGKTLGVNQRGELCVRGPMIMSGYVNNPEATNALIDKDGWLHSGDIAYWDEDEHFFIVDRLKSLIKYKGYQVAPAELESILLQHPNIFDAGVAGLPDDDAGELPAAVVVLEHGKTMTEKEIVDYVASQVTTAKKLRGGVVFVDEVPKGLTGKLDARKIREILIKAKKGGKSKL

For orientation: EC50 means the concentration giving half of the maximal effect. One may read the AC50 as the concentration at which the activity in the assay is half-maximal. For the molecule `COc1cc2c(cc1OC)-c1cc(Nc3ccc4c(c3)OCCO4)nc(=O)n1CC2`, the results for the EC50 in experiment [1], in experiment [2] and in experiment [3] were 2.04 µM (active), 17.4 µM (active) and 4.63 µM (active), respectively. The half-maximal activity concentration (AC50) in the experiment with HEK293 is 27.3 µM (active).
Take `Oc1ccc(O)c(C=NNC(=S)NC2CC3CC2C2C=CCC32)c1` (stereo not drawn): in [4], the AC50 is > 100 µM (inactive).
In general, IC50 refers to the concentration at which inhibition is half-maximal. Take `CCOC(=O)CN1C(=O)S/C(=C\c2ccc(-c3cccc(C(=O)O)c3C)o2)C1=O`: the IC50 is 45.4 µM (active) at Caspase-3, 6.97 µM (active) in experiment [5], 18 µM (active) in experiment [6] and 16.2 µM (active) in experiment [7].
In the case of `COc1ccccc1C=CC(=O)C=Cc1ccccc1OC`, the IC50 in experiment [8] was 6.46 µM (active).
As to `CCOc1cccc(-c2nc3cc(C)ccc3o2)c1`, the IC50 on Caspase-3 is 18.2 µM (active); in experiment [5], 7.7 µM (active); in [6], 15.6 µM (active); in experiment [7] it was 39.6 µM (active).
`Cc1ccc(C(C[N+](=O)[O-])c2c(N)n(C)c(=O)n(C)c2=O)cc1` (stereo not drawn): the AC50 in experiment [9] is 2.5 µM (active).
As for `CCC1(C)N=C(c2ccc3c(c2)OCO3)CC(c2ccccc2O)N1` (stereo not drawn), the IC50 in experiment [8] was 1.87 µM (active).
As to `Cc1ccc(/C(=N/Nc2nc3ccccc3s2)C2=C(O)c3ccccc3C2=O)cc1`, the AC50 in [4] was 41.1 µM (active).
Take `Cc1ccc(S(=O)(=O)NC(=NNC(=O)c2cccc(Cl)c2)c2ccccc2)cc1`: the concentration for half-maximal inhibition (IC50) was 10.3 µM (active) at Caspase-3, 5.83 µM (active) in experiment [5], 13.6 µM (active) in experiment [6] and 19.4 µM (active) in experiment [7].
With `Cc1nc(-c2ccccc2)sc1C(=O)/C=C/c1ccccc1`, in experiment [10], the CC50 was 36.9 µM (active). Besides, the IC50 in experiment [8] was 3.43 µM (active).
